Source: publication PMC5674900, “Identification of new channels by systematic analysis of the mitochondrial outer membrane” (The Journal of Cell Biology, 2017)
Numbering of substitutions follows the chain as printed.

What was measured:
Ayr1 [1] = target: T1, Ayr1 (Saccharomyces cerevisiae, UniProt P40471); assay: planar lipid bilayer electrophysiology, reconstituted channel; type: biochemical; settings: 1 mM NADPH; symmetrical 250 mM KCl, pH 7.0; activator of channel gating
T1 construct: ORF with His10 tag, expressed in E. coli BL21(DE3), purified in urea, reconstituted into liposomes / planar lipid bilayer; 33 kD
T1 sequence (P40471 1-297): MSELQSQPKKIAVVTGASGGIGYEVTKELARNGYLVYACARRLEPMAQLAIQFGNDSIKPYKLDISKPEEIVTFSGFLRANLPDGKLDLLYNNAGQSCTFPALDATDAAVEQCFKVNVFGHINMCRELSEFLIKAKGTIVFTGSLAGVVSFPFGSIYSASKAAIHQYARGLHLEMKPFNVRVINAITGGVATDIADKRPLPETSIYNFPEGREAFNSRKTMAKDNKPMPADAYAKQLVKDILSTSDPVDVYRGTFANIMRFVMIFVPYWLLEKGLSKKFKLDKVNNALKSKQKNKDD

Ayr1 [2] = target: T2, Ayr1 (Saccharomyces cerevisiae, UniProt P40471, G20A/G22A); assay: as above; type: biochemical; settings: 1 mM NADPH; symmetrical 250 mM KCl, pH 7.0; activator of channel gating; NADPH-binding motif mutant, effect mostly abolished
T2 construct: ORF with His10 tag, expressed in E. coli BL21(DE3), purified in urea, reconstituted into liposomes / planar lipid bilayer; 33 kD
T2 sequence (P40471 1-297 G20A/G22A): T1 sequence (P40471 1-297) with G20A, G22A

## NC(=O)C1=CN([C@@H]2O[C@H](COP(=O)(O)OP(=O)(O)OC[C@H]3O[C@@H](n4cnc5c(N)ncnc54)[C@H](OP(=O)(O)O)[C@@H]3O)[C@@H](O)[C@H]2O)C=CC1 [NADPH]
Ayr1 [1]
  planar lipid bilayer electrophysiology, reconstituted channel: NADPH strongly stimulated the frequency of gating between the distinct states
Ayr1 [2]
  planar lipid bilayer electrophysiology, reconstituted channel: the effect of NAPDH was mostly abolished, and no increase of the gating frequency was observed
